The record followed here is publication PMC6410080 (Viruses, 2019).

Data set [1] has as its system DID-labelled SFV hemifusion/fusion. The data set is classed as cell-based, Semliki Forest virus. The settings on record: HeLa Kyoto, 10 μM (20 μM Raloxifene; Bafilomycin 100 nM), 40 min at 37 °C.
Data set [2] concerns DENV-2. As to the kind of experiment: DENV-2 infection assay / secondary screen (E protein staining). The data set is classed as cell-based, dengue virus serotype 2. The following applies: for inhibition at 10 µM: read-out: % inhibition (DENV-2 screen).
Data set [3] relates to viruses/VLPs tested. Type of data set: cell-based.
In data set [4] the test system is Huh7 cells. As to the kind of experiment: MTT assay, Huh7 cells. The settings on record: for TC50 DENV-2 (7 + 17 h): Huh7, compounds 7 h then compound-free media 17 h; for TC50 DENV-2 (24 h): Huh7, compounds 24 h.
In data set [5] the test system is SFV. The data set is classed as cell-based, Semliki Forest virus.
In data set [6] the test system is SFV. As to the kind of experiment: microbe, parasite or virus in culture. The settings on record: for inhibition at 10 µM: M-HeLa, 7 h, read-out: % inhibition (SFV screen); for IC50: read-out: IC50 SFV (7 h); for % inhibition (SFV screen): 10 µM. The data set is classed as cell-based, Semliki Forest virus.
In data set [7] the test system is ZIKV. As to the kind of experiment: microbe, parasite or virus in culture. Type of data set: cell-based, Zika virus.
The subject of data set [8] is HCV. In words: microbe, parasite or virus in culture. Type of data set: cell-based, hepatitis C virus.
Data set [9] has as its system VSV VLP. As to the kind of experiment: microbe, parasite or virus in culture. Type of data set: cell-based, vesicular stomatitis virus. The following applies: read-out: IC50 VSV.
Data set [10] relates to DENV-1. In words: microbe, parasite or virus in culture. Type of data set: cell-based, dengue virus.
Data set [11] is described as follows: in vitro. The settings on record: human.
Data set [12] has as its system HeLa Kyoto cells.
The subject of data set [13] is Renilla luciferase expression (protein synthesis). Type of data set: cell-based.
In data set [14] the test system is EBOV VLP. As to the kind of experiment: microbe, parasite or virus in culture. Type of data set: cell-based, Ebola virus.
Data set [15] relates to HIV-1. As to the kind of experiment: microbe, parasite or virus in culture. The data set is classed as cell-based, human immunodeficiency virus type 1. The settings on record: read-out: IC50 HIV.
In data set [16] the test system is RABV VLP. In words: microbe, parasite or virus in culture. The data set is classed as cell-based, rabies virus. The following applies: read-out: IC50 RABV.
In data set [17] the test system is Huh7 cells. The following applies: human.
Data set [18] concerns H5N1 VLP. As to the kind of experiment: microbe, parasite or virus in culture. The data set is classed as cell-based, influenza H5N1. The settings on record: for IC50: Influenza A virus, H5N1, HeLa Kyoto, 48 h, read-out: IC50 H5N1.
The subject of data set [19] is SINV. In words: microbe, parasite or virus in culture. The settings on record: read-out: IC50 SINV. Type of data set: cell-based, Sindbis virus.
Data set [20] concerns HSV-1. In words: microbe, parasite or virus in culture. Type of data set: cell-based, herpes simplex virus 1.
Data set [21] can be described thus: in vitro. The settings on record: human, % viability (SFV screen).
Data set [22] concerns YF17D. In words: organism not typed. The data set is classed as cell-based, yellow fever 17D.
Data set [23] concerns DENV-3. As to the kind of experiment: microbe, parasite or virus in culture. The data set is classed as cell-based, dengue virus.
In data set [24] the test system is HeLa Kyoto cells. The following applies: 10 µM.
Data set [25] has as its system Huh7 cells. The following applies: 10 µM.
The test system of data set [26] is VACV. In words: microbe, parasite or virus in culture. Type of data set: cell-based, vaccinia virus. The settings on record: read-out: IC50 VACV.
The test system of data set [27] is ZIKV. The settings on record: AG129 mice.
The mark [28] stands for this setting: Dengue virus, DENV2, Huh-7, 24 h.
Where [29] appears, read: Zika virus, Huh-7, read-out: IC50 ZIKV.
Setting [30] is: Hepatitis C virus, Huh7.5, read-out: IC50 HCV.
[31] abbreviates: Vesicular stomatitis virus, HeLa Kyoto, 24 h.
Setting [32] is: Dengue virus, DENV1, Huh-7, read-out: IC50 DENV-1.
Setting [33] is: Human immunodeficiency virus 1, 24 h.
Setting [34] is: Dengue virus, DENV2, Huh-7, 24 h, read-out: IC50 DENV-2 (7 + 17 h).
The mark [35] stands for this setting: Dengue virus, DENV2, Huh-7, 24 h, read-out: IC50 DENV-2 (24 h).
The mark [36] stands for this setting: Lyssavirus rabies, HeLa Kyoto, 24 h.
Setting [37] is: Semliki Forest virus, HeLa Kyoto.

SMILES strings stand for the structures. Counter-ions that a name gives are not always drawn. Like-named read-outs stand apart in the source and are kept apart here.

`CCCCc1oc2ccccc2c1C(=O)c1cc(I)c(OCCN(CC)CC)c(I)c1` [Amiodarone, Amiodarone hydrochloride]: the “Inhibition of DID-SFV de-quenching (in words)” value in data set [1] is listed as “Intermediate levels of inhibition”. Also, the inhibition at 10 µM in data set [2] (setting [28]) is 92.9%. Moreover, in data set [3], the “Viruses Inhibited” value is on record as “Endosomal pH-dep”. In data set [4], the “TC50 DENV-2 (7 + 17 h)” value is reported as 40.6 µM and the “TC50 DENV-2 (24 h)” value is given as approximately 25.5 µM. In data set [5], the “Activity when added before SFV or 30 and 60 min after internalisation” value (from here on “Activity”) is “act exclusively before (or at the stage of) fusion”; the “Time of Addition” value was “Before fusion”. For the same compound, the inhibition at 10 µM in data set [6] (Semliki Forest virus) is 85.5%.

Turning to `CO/C1=C\C(C)=C\[C@@H](C)[C@@H](O)[C@@H](C)C/C(C)=C/C=C/[C@H](OC)[C@@H]([C@@H](C)[C@@H](O)[C@H](C)[C@@]2(O)C[C@@H](O)[C@H](C)[C@@H](C(C)C)O2)OC1=O` [Bafilomycin], the “Inhibition of DID-SFV de-quenching (in words)” value in data set [1] was “Strong inhibition of de-quenching”.

As to `CNc1ccc2oc(C[C@H]3O[C@@]4(CC[C@H]3C)O[C@H]([C@H](C)C(=O)c3ccc[nH]3)[C@H](C)C[C@H]4C)nc2c1C(=O)O` [Calcimycin], the IC50 amounted to 17.1 µM in data set [7] (setting [29]); 1.45 µM in data set [8] (setting [30]); 0.1 µM in data set [9] (setting [31]); 4.3 µM in data set [10] (setting [32]); 0.5 µM in data set [14] (Zaire ebolavirus, HeLa Kyoto, 48 h, read-out: IC50 EBOV); 2.5 µM in data set [15] (setting [33]). Besides, the 50% inhibitory concentration (IC50) in data set [2] (setting [34]) is 4.4 µM; in [2] (setting [35]), 0.38 µM; in data set [16] (setting [36]) it was 0.7 µM; in [18], 0.4 µM; in data set [19] (Sindbis virus, HeLa Kyoto), 2.1 µM; in data set [20] (Human alphaherpesvirus 1, Vero, 8 h, read-out: IC50 HSV (Vero)), less than 0.5 µM. For the same compound, the half-inhibitory concentration (IC50) in [6] (setting [37]) was determined as 0.6 µM; in data set [22] (Huh-7, read-out: IC50 YF17D), 0.4 µM. Besides, the viability at 10 µM in [11] is 40%; in data set [21], 34.4%. In [12] (human), the “TC50 SFV (7 h)” value was 4.1 µM. Moreover, in data set [12] (human), the “TC50 SFV (7h)” value is 4100 µM. The “Decrease of Renilla signal (protein synthesis)” value in data set [13] was “more than 50%”. Besides, the “Inhibition of protein synthesis at lower concentrations” value in data set [13] was “lose their inhibitory activity on protein synthesis”. Moreover, the inhibition at 10 µM in data set [2] (setting [28]) was 100%; in data set [6] (Semliki Forest virus), 91.4%. In addition, in data set [3], the “Viruses Inhibited” value is on record as “All tested”. In data set [17], the “TC50 DENV-2 (7 + 17 h)” value is listed as more than 50 µM. Also, the “TC50 DENV-2 (24 h)” value in data set [17] stood at 6.7 µM.

`Cc1ccc(S(=O)(=O)N[C@@H](Cc2ccccc2)C(=O)CCl)cc1` [N-p-Tosyl-L-PCK, N-p-Tosyl-L-phenylalanine chloromethyl ketone]: the 50% inhibitory concentration (IC50) is 24.3 µM in [7] (read-out: IC50 ZIKV); 24.2 µM in data set [23] (read-out: IC50 DENV-3); approximately 13 µM in [8] (read-out: IC50 HCV); 11.5 µM in [9]; 25.6 µM in data set [10] (read-out: IC50 DENV-1); 12.5 µM in [15]. In addition, the half-inhibitory concentration (IC50) was 19.6 µM in data set [2] (Huh7, compounds 7 h then media replaced for 17 h, read-out: IC50 DENV-2 (7 + 17 h)); 7.5 µM in [2] (Huh7, compounds for entire 24 h, read-out: IC50 DENV-2 (24 h)); 15 µM in data set [16]; 11.9 µM in [19]; 14.4 µM in data set [26]; 10.7 µM in data set [6]. Further, the IC50 in data set [22] (read-out: IC50 YF17D) came out at 4.6 µM. Moreover, the “TC50 SFV (7 h)” value in [12] worked out at 42.7 µM. In addition, in data set [12], the “TC50 SFV (7h)” value is 42700 µM. For the same compound, the “Decrease of Renilla signal (protein synthesis)” value in data set [13] is “more than 50%”. For the same compound, the “Inhibition of protein synthesis at lower concentrations” value in data set [13] is listed as “partially inhibits protein synthesis but not virus infection”. Further, the “IC50 EBOV” value in data set [14] is “No inhibition”. Further, the “% inhibition (DENV-2 screen)” value in [2] (10 µM, Huh7, MOI 1, 24 h, compared to DMSO-treated controls) is given as 60.35%. In [3], the “Viruses Inhibited” value is reported as “Unclear pattern”. Also, the “% viability (SFV screen)” value in data set [24] is recorded as 95.24%. Moreover, the “IC50 H5N1” value in data set [18] is “No inhibition”. Further, the “TC50 DENV-2 (7 + 17 h)” value in data set [4] came to 24.2 µM. In addition, the “TC50 DENV-2 (24 h)” value in data set [4] came to 31.7 µM. In addition, in [25], the “% viability (DENV-2 screen)” value is 58.91%. For the same compound, the “Activity” value in data set [5] is listed as “act exclusively before (or at the stage of) fusion”. Also, the “Time of Addition” value in [5] is on record as “Before fusion”. Besides, the “IC50 HSV (Vero)” value in [20] is “No inhibition”. In data set [6], the “% inhibition (SFV screen)” value was 82.34%.

As for `C=C1C(=O)O[C@H]2[C@H]1CC/C(C)=C/CC[C@@]1(C)O[C@@H]21` [Parthenolide], the half-maximal inhibitory concentration (IC50) in [7] (setting [29]) amounted to 6.1 µM; in data set [23] (Dengue virus, DENV3, Huh-7, read-out: IC50 DENV-3), 15.8 µM; in data set [8] (setting [30]), 5.6 µM; in [9] (setting [31]), 2.6 µM; in [10] (setting [32]), 10 µM; in data set [15] (setting [33]), 3.7 µM. Moreover, the half-inhibitory concentration (IC50) in data set [2] (setting [34]) is 12.2 µM; in data set [2] (setting [35]), 7.5 µM; in data set [16] (setting [36]) it was 3.8 µM; in data set [18], 19.4 µM; in data set [19] (Sindbis virus, HeLa Kyoto) it was 3.2 µM; in data set [26] (Orthopoxvirus vaccinia, HeLa Kyoto, 8 h), 5 µM. The half-maximal inhibitory concentration (IC50) in [6] (setting [37]) amounted to 3.3 µM; in [22] (Huh-7, read-out: IC50 YF17D), 6.4 µM. The viability at 10 µM is 71.4% in [11] and 56.8% in data set [21]. In addition, the “TC50 SFV (7 h)” value in data set [12] (human, 7 h) came out at 11.7 µM. In addition, the “TC50 SFV (7h)” value in data set [12] (human, 7 h) was determined as 11700 µM. Besides, the “IC50 EBOV” value in [14] is recorded as “Toxic”. The values for the inhibition at 10 µM in [2] (setting [28]) and in data set [6] (Semliki Forest virus) were 91.2% and 101%, respectively. Besides, in data set [3], the “Viruses Inhibited” value is “Unclear pattern”. Also, the “TC50 DENV-2 (7 + 17 h)” value in [17] turned out to be 35.8 µM. Besides, the “TC50 DENV-2 (24 h)” value in data set [17] (24 h) was 11.9 µM. For the same compound, in [24] (human), the “% viability (SFV screen)” value came out at 74.22%. Besides, the “Activity” value in data set [5] was “minor but reproducible decrease in activity”. Moreover, the “Time of Addition” value in data set [5] is “Before and after fusion”. Further, the “IC50 HSV (Vero)” value in data set [20] (virus, Vero cells, 8 h) is recorded as “No inhibition”. Besides, the “% inhibition (SFV screen)” value in data set [6] is 98.23%.

In the case of `CC(C)OC(=O)[C@H](C)N[P@](=O)(OC[C@H]1O[C@@H](n2ccc(=O)[nH]c2=O)[C@](C)(F)[C@@H]1O)Oc1ccccc1` [Sofosbuvir], the “Infectious virus in the blood at day 7 p.i.” value in [27] (immunofocus assay) is on record as “cleared infectious virus from the blood by day 7”. The “ZIKV blood titres at day 1 p.i.” value in data set [27] (qRT-PCR and immunofocus assay, vs untreated) was “significantly reduced blood titres”.
